Test results reported in US4421760A, “β-Lactam antibiotic, its preparation and use” (Beecham Group Limited, priority 1980, dated 1983).
Values after ≈ are worked out from the molar mass of the structure shown. Where two headings read alike, the source gives them in different places.

What was measured:
[1] = biological target: Klebsiella aerogenes E70 β-Lactamase; test: β-Lactamase inhibitory activity; assay type: biochemical
Experimental: (§1) β-Lactamase Inhibitory Activity of MM 27696 sodium salt
(§2) b = without preincubation

E. coli JT4 β-Lactamase = E. coli JT4 β-Lactamase (Escherichia coli, UniProt P62593); test: β-Lactamase inhibitory activity; assay type: biochemical; conditions: read-out: β-Lactamase Inhibitory Activity I50 (converted)
Experimental: as §1, §2

[2] = biological target: S. aureus Russell β-Lactamase (Staphylococcus aureus, UniProt P00807); test: β-Lactamase inhibitory activity; assay type: biochemical; conditions: read-out: β-Lactamase Inhibitory Activity I50 (converted)
Experimental: as §1, §2

[3] = biological target: Enterobacter cloacae P99 β-Lactamase (Enterobacter cloacae, UniProt P05364); test: β-Lactamase inhibitory activity; assay type: biochemical; conditions: read-out: β-Lactamase Inhibitory Activity I50 (converted)
Experimental: as §1, §2

Shigella sonnei MB 11967 = test: Antibacterial activity, microtitre method; assay type: cell-based; conditions: MB11967
Source text: (§3) The antibacterial activity of the preparation of MM 27696 described in the example has been determined by the microtitre method and is reported in The Table.
(§4) Antibacterial Activity of MM 27696 sodium salt determined
(§5) by the Microtitre Method

Proteus vulgaris W091 = test: Antibacterial activity, microtitre method; assay type: cell-based
Source text: as §3, §4, §5

Bacillus subtilis A = test: Antibacterial activity, microtitre method; assay type: cell-based
Source text: as §3, §4, §5

Citrobacter freundii E8 = test: Antibacterial activity, microtitre method; assay type: cell-based
Source text: as §3, §4, §5

Escherichia coli 0111 = test: Antibacterial activity, microtitre method; assay type: cell-based
Source text: as §3, §4, §5

Proteus rettgeri WM16 = test: Antibacterial activity, microtitre method; assay type: cell-based; conditions: Providencia rettgeri
Source text: as §3, §4, §5

Proteus morganii I580 = test: Antibacterial activity, microtitre method; assay type: cell-based; conditions: Morganella morganii
Source text: as §3, §4, §5

[4] = test system: Streptococcus pneumoniae CN33; test: Antibacterial activity, microtitre method; assay type: cell-based
Source text: as §3, §4, §5

Klebsiella aerogenes A = test: Antibacterial activity, microtitre method; assay type: cell-based
Source text: as §3, §4, §5

Escherichia coli JT 39 = test: Antibacterial activity, microtitre method; assay type: cell-based; conditions: JT39
Source text: as §3, §4, §5

Streptococcus faecalis I = test: Antibacterial activity, microtitre method; assay type: cell-based; conditions: Enterococcus faecalis
Source text: as §3, §4, §5

Proteus mirabilis C977 = test: Antibacterial activity, microtitre method; assay type: cell-based
Source text: as §3, §4, §5

E. coli ESS = test: Antibacterial activity, microtitre method; assay type: cell-based; conditions: Escherichia coli
Source text: as §3, §4, §5

[5] = test system: Staphylococcus aureus Russell; test: Antibacterial activity, microtitre method; assay type: cell-based
Source text: as §3, §4, §5

[6] = test system: Staphylococcus aureus 1517; test: Antibacterial activity, microtitre method; assay type: cell-based
Source text: as §3, §4, §5

[7] = test system: Streptococcus pyogenes CN10; test: Antibacterial activity, microtitre method; assay type: cell-based
Source text: as §3, §4, §5

[8] = test system: Salmonella typhimurium CT10; test: Antibacterial activity, microtitre method; assay type: cell-based; conditions: Salmonella enterica
Source text: as §3, §4, §5

Enterobacter cloacae N1 = test: Antibacterial activity, microtitre method; assay type: cell-based
Source text: as §3, §4, §5

Pseudomonas aeruginosa A = test: Antibacterial activity, microtitre method; assay type: cell-based
Source text: as §3, §4, §5

Serratia marcescens US20 = test: Antibacterial activity, microtitre method; assay type: cell-based
Source text: as §3, §4, §5

[9] = test system: Staphylococcus aureus Oxford; test: Antibacterial activity, microtitre method; assay type: cell-based
Source text: as §3, §4, §5

E. coli JT4 β-Lactamase, sequence (P62593 24-286 limits assumed): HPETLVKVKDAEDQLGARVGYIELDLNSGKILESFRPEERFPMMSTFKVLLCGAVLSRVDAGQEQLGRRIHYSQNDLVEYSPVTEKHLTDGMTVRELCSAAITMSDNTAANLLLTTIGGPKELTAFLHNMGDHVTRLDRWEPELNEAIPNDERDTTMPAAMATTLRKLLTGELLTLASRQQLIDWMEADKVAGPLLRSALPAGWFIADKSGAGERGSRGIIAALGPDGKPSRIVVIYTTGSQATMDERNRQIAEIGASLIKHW
Enterobacter cloacae P99 β-Lactamase, sequence (P05364 21-381): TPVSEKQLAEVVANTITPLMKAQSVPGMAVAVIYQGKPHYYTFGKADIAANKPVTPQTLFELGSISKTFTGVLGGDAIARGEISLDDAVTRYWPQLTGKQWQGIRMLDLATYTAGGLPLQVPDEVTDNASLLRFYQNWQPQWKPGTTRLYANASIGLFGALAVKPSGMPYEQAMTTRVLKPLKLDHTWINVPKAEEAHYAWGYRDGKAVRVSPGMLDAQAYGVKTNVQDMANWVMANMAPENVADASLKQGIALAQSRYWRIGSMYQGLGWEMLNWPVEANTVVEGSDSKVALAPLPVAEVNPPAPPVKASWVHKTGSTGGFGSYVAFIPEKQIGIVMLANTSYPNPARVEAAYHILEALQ
S. aureus Russell β-Lactamase, sequence (P00807 25-281): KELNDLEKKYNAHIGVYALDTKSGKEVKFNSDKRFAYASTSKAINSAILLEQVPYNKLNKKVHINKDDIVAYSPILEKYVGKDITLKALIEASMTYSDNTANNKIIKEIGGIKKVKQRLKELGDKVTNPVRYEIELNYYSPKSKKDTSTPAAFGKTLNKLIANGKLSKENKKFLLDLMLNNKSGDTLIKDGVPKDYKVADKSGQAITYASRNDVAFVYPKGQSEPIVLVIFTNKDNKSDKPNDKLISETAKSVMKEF

CCC(=O)N/C=C/SC1=C(C(=O)O)N2C(=O)[C@@H]([C@H](C)OS(=O)(=O)O)[C@H]2C1 [MM 27696]
β-Lactamase Inhibitory Activity I50 ([1]; a = with preincubation): 0.003 µg/mL
β-Lactamase Inhibitory Activity I50 ([1]; b = without preincubation): 0.4 µg/mL
IC50 (E. coli JT4 β-Lactamase; a = with preincubation): 0.0246 µM
IC50 (E. coli JT4 β-Lactamase; b = without preincubation): 0.984 µM
IC50 ([2]; a = with preincubation): 0.0738 µM
IC50 ([2]; b = without preincubation): > 123 µM
IC50 ([3]; a = with preincubation): 0.00492 µM
IC50 ([3]; b = without preincubation): 0.615 µM
MIC (Shigella sonnei MB 11967): < 0.1 mg/L
MIC (Proteus vulgaris W091): 0.4 mg/L (≈ 0.984 µM)
MIC (Bacillus subtilis A): < 0.1 mg/L
MIC (Citrobacter freundii E8): 3.1 mg/L (≈ 7.63 µM)
MIC (Escherichia coli 0111): 0.8 mg/L (≈ 1.97 µM)
MIC (Proteus rettgeri WM16): 0.4 mg/L (≈ 0.984 µM)
MIC (Proteus morganii I580): 0.2 mg/L (≈ 0.492 µM)
MIC [4]: < 0.1 mg/L
MIC (Klebsiella aerogenes A): 0.4 mg/L (≈ 0.984 µM)
MIC (Escherichia coli JT 39): 0.2 mg/L (≈ 0.492 µM)
MIC (Streptococcus faecalis I): 12.5 mg/L (≈ 30.8 µM)
MIC (Proteus mirabilis C977): < 0.1 mg/L
MIC (E. coli ESS): < 0.1 mg/L
MIC [5]: 0.8 mg/L (≈ 1.97 µM)
MIC [6]: 100 mg/L (≈ 246 µM)
MIC [7]: < 0.1 mg/L
MIC [8]: 0.2 mg/L (≈ 0.492 µM)
MIC (Enterobacter cloacae N1): 0.2 mg/L (≈ 0.492 µM)
MIC (Pseudomonas aeruginosa A): 50 mg/L (≈ 123 µM)
MIC (Serratia marcescens US20): 6.2 mg/L (≈ 15.3 µM)
MIC [9]: 0.4 mg/L (≈ 0.984 µM)
